# Results as given in ChEMBL document CHEMBL4118141, “Design, synthesis and biological evaluation of novel hydrogen sulfide releasing capsaicin derivatives” (Bioorg Med Chem, 2018).
# Active and inactive are the calls of the source. No cut-off for these calls is given here.
# Legend:
# Mus musculus [1] = experiment: Antinociceptive activity in capsaicin-induced nociception pain Kunming mouse model assessed as reduction in time spent in paw licking at 60 mg/kg, po pretreated for 30 mins followed by capsaicin challenge measured for 5 mins post capsaicin challenge; format: functional, organism-based
# Mus musculus [2] = experiment: Antinociceptive activity in Kunming mouse model assessed as inhibition of acetic acid-induced writhes at 60 mg/kg, po pretreated for 30 mins followed by acetic acid challenge measured for 15 mins post acetic acid challenge; format: functional, organism-based
# K562 = experiment: Antiproliferative activity against human K562 cells after 48 hrs by MTT assay; format: functional, cell-based; conditions: K562, 48 h
# HeLa = experiment: Antiproliferative activity against human HeLa cells after 48 hrs by MTT assay; format: functional, cell-based
# MCF7 = experiment: Antiproliferative activity against human MCF7 cells after 48 hrs by MTT assay; format: functional, cell-based; conditions: MCF7, 48 h
# [3] = target: Transient receptor potential cation channel subfamily V member 1 (Homo sapiens) (UniProt Q8NER1); experiment: Agonist activity at human TRPV1 expressed in HEK293 cells assessed as increase in calcium influx by measuring ratio of 340/380 nm excitatory wavelength at 10 uM treated for 2 mins by Fura-2AM dye-based fluorescence assay; format: cell-based
# Sequence of Transient receptor potential cation channel subfamily V member 1 (Homo sapiens) (Q8NER1 whole entry): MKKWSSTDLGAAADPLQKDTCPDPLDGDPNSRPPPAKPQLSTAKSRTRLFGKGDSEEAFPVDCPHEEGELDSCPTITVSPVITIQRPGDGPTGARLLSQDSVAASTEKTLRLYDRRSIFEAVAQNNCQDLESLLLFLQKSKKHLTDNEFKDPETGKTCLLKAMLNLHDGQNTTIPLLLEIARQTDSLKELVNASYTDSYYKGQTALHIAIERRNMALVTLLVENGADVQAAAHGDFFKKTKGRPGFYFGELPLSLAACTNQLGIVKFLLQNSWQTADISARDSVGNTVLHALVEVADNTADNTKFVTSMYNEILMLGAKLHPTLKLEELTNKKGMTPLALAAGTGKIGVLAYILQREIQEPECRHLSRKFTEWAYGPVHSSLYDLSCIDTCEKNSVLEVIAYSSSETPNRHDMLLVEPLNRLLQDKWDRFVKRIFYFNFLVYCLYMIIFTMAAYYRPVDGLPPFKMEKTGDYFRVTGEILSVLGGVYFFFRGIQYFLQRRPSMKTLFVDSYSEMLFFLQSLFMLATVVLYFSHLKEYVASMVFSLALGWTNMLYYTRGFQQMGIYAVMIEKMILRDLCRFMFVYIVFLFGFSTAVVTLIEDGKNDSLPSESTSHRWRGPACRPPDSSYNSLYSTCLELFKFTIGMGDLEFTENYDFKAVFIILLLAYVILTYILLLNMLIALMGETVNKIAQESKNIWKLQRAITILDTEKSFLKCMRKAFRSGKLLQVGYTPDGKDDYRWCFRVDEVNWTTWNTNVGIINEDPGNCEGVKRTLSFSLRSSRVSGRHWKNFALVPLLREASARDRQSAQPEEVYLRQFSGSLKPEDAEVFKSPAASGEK
# Mus musculus [4] = experiment: Antinociceptive activity in Kunming mouse model of thermal-induced nociception assessed as increase in latency to tail withdrawal at 60 mg/kg, po by tail flick test; format: functional, organism-based
# Mus musculus [5] = experiment: Ulcerogenic activity in Kunming mouse assessed as lesion in stomach at 30 mg/kg, po qd for 6 days measured on day 7 by microscopic analysis; format: toxicity, organism-based; conditions: in vivo, 144 h
# [6] = Acute toxicity in po dosed CD rat measured for 7 days; format: organism-based; conditions: in vivo
IC50 (K562),IC50 (HeLa),IC50 (MCF7),Ratio [3],SMILES,Activity (Mus musculus [1]),inhibition (Mus musculus [2]),Activity (Mus musculus [4]),Activity (Mus musculus [5]),LD50 at 168 h [6]
> 50 µM,> 50 µM,> 50 µM,1.71,COc1cc(CNC(=O)CCCC/C=C/C(C)C)ccc1OCCCCCOc1ccc(-c2cc(=S)ss2)cc1,Active,Active,–,–,–
> 50 µM,40.7 µM,4.99 µM,1.59,COc1cc(CNC(=O)CCCCCCC(C)C)ccc1OCCCCOc1ccc(C(N)=S)cc1,Active,Active,–,–,–
4.45 µM,4.25 µM,2.12 µM,2.1,COc1cc(CNC(=O)CCCC/C=C/C(C)C)ccc1OC(=O)CCC(=O)Oc1ccc(-c2cc(=S)ss2)cc1,Active,Active,Active,Non-Toxic,–
> 50 µM,47.1 µM,36.4 µM,1.96,COc1cc(CNC(=O)CCCC/C=C/C(C)C)ccc1OCCCCOc1ccc(-c2cc(=S)ss2)cc1,Active,Active,Active,Non-Toxic,–
–,–,–,–,CC(C)(C)c1ccc(NC(=O)N2CCN(c3ncccc3Cl)CC2)cc1,–,–,Active,–,–
5.93 µM,5.53 µM,2.56 µM,1.96,COc1cc(CNC(=O)CCCCCCC(C)C)ccc1OC(=O)CCC(=O)Oc1ccc(-c2cc(=S)ss2)cc1,Active,Active,–,–,–
> 50 µM,39.6 µM,39.4 µM,1.77,COc1cc(CNC(=O)CCCC/C=C/C(C)C)ccc1OC(=O)c1ccc(C(N)=S)cc1,Active,Active,–,Non-Toxic,–
> 50 µM,> 50 µM,> 50 µM,1.69,COc1cc(CNC(=O)CCCCCCC(C)C)ccc1OC(=O)c1ccc(C(N)=S)cc1,Active,Active,–,–,–
> 50 µM,> 50 µM,49.8 µM,1.7,COc1cc(CNC(=O)CCCC/C=C/C(C)C)ccc1OCCCCOc1ccc(C(N)=S)cc1,Active,Active,–,–,–
> 50 µM,46.4 µM,17.2 µM,1.87,COc1cc(CNC(=O)CCCC/C=C/C(C)C)ccc1OCCCCCOc1ccc(C(N)=S)cc1,Active,Active,–,–,–
> 50 µM,44.6 µM,49.5 µM,1.69,COc1cc(CNC(=O)CCCCCCC(C)C)ccc1OCCCCOc1ccc(-c2cc(=S)ss2)cc1,Active,Active,–,–,–
> 50 µM,> 50 µM,48.6 µM,1.69,COc1cc(CNC(=O)CCCCCCC(C)C)ccc1OCCCCCOc1ccc(-c2cc(=S)ss2)cc1,Active,Active,–,–,–
> 50 µM,> 50 µM,> 50 µM,1.94,COc1cc(CNC(=O)CCCC/C=C/C(C)C)ccc1OC(=O)CCC(=O)Oc1ccc(C(N)=S)cc1,Active,Active,–,Non-Toxic,–
> 50 µM,> 50 µM,49.3 µM,1.76,COc1cc(CNC(=O)CCCCCCC(C)C)ccc1OCCCCCOc1ccc(C(N)=S)cc1,Active,Active,–,–,–
–,> 50 µM,–,1.87,COc1cc(CNC(=O)CCCCCCC(C)C)ccc1OC(=O)CCC(=O)Oc1ccc(C(N)=S)cc1,Active,Active,–,–,–

SMILES,IC50 (K562),IC50 (HeLa),IC50 (MCF7),Ratio [3],Activity (Mus musculus [1]),inhibition (Mus musculus [2]),Activity (Mus musculus [4]),Activity (Mus musculus [5]),LD50 at 168 h [6]
COc1cc(CNC(=O)CCCC/C=C/C(C)C)ccc1O [CAPSAICIN],49.4 µM,> 50 µM,50 µM,–,–,–,–,Toxic,161 mg/kg
COc1cc(CNC(=O)CCCCCCC(C)C)ccc1O [DIHYDROCAPSAICIN],> 50 µM,> 50 µM,> 50 µM,2,–,–,–,–,–
COc1cccc2c1C(=O)c1c(O)c3c(c(O)c1C2=O)C[C@@](O)(C(=O)CO)C[C@@H]3O[C@H]1C[C@H](N)[C@H](O)[C@H](C)O1 [DOXORUBICIN],1.51 µM,0.451 µM,–,–,–,–,–,–,–
